Laboratory results as given in patent publication US20230148450A9, “BICYCLIC HETEROARYL COMPOUNDS AND USES THEREOF” (Revolution Medicines, Inc., priority 2019, published 2023).

Key:
[1] = molecular target: T1, SOS1-mediated exchange of KRAS-4B:GDP to KRAS-4B:GTP (Homo sapiens, UniProt Q07889); assay: Bodipy-FL-GTP Association Assay; format: biochemical; settings: SOS1 GEF activity on KRAS-4B, 22° C.
T1 construct: SOS1 (Cytoskeleton Inc., Cat. CS-GE02); purchased Cytoskeleton Inc. CS-GE02 (SOS1); CSRS03 (KRAS4-B)
T1 sequence (Q07889 564-1049 limits assumed): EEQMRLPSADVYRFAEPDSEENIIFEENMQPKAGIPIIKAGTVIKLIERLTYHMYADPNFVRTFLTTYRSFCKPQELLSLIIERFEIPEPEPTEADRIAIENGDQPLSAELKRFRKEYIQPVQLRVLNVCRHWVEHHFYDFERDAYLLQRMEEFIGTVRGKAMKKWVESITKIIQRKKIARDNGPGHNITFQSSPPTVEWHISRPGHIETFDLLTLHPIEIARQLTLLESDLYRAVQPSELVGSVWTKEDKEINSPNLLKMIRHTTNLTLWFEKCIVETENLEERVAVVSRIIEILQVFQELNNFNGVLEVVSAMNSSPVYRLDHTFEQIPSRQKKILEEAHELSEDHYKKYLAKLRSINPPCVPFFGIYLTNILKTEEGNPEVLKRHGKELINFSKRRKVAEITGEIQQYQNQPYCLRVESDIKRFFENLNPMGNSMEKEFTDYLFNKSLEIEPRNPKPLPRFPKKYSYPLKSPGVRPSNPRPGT
Protocol: A low IC50 value for a given compound is indicative of high potency of said compound in inhibiting the guanine nucleotide exchange factor (GEF) activity of SOS1 on KRAS-4B in this assay setting. Reagents: BODIPY FL GTP (ThermoFisher Scientific, Cat. G12411); KRAS4-B (Cytoskeleton Inc., Cat. CSRS03); SOS1 (Cytoskeleton Inc., Cat. CS-GE02); 2× Assay Buffer: 40 mM Tris-HCl, pH 7.5; 100 mM NaCl; 20 mM MgCl2; 0.1 mg/mL BSA; 0.02% NP-40 Assay Procedure: Test compounds were dissolved in DMSO to create 20 mM master stocks. The stocks were diluted in a 3× dilution series in 100% DMSO to achieve 100× compound stocks. A 1 μl spot of each test compound stock was delivered to two adjacent wells of a 96-well assay plate prior to running the assay. Reaction Mix preparation: The following were mixed in order at room temperature to obtain the “Reaction Mix” (5.75 mL 2× Exchange Buffer; 3.22 mL MilliQ ddH2O; 3 μL 5 mM BODIPY FL GTP; 230 μL 50 μM KRAS-4B; 9.203 mL Total volume. Reaction initiation: 80 μL of Reaction Mix was pipetted into each well of a half-area black 96-well plate (Corning, Cat. 3686) containing either a 1 μL spot of DMSO or a 1 μL spot test compound at the concentrations listed above. 20 μL of 1 μM SOS1 was then added to each well to initiate the reaction. For the no GEF control wells this was replaced with 1× exchange buffer. Kinetic measurement: The reaction was monitored in a SpectraMax M2 Microplate Reader (Molecular Devices) under the following protocol: 5 second rapid circular mixing before first read; 61 readings, 30 seconds apart; Assay temperature: 22° C.; Excitation wavelength: 485 nm; Emission wavelength: 513 nm. Data Analysis: The V max values for the SOS1-mediated BODIPY FL GTP exchange curves in the presence of test compounds were normalized to the most dilute test sample columns or DMSO only control wells to give the % Activity for each concentration of test compound. Plots of % Activity vs. the Log10 of the compound concentration were fit by non-linear regression to a 4-parameter logistic model.

[2] = test system: cellular pERK in PC-9 cells (EGFR Ex19Del); assay: Potency Assay: pERK; format: cell-based; settings: Homo sapiens; PC-9 cells (EGFR Ex19Del), 1 hour incubation, AlphaLISA p-ERK1/2; read-out: SOS1 pERK IC50
Summary of the method: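 Cells plated the day before and treated 1 h at 37 °C with 10-point 3-fold dilutions in duplicate, top 10 μM. pERK1/2 in lysates read by AlphaLISA SureFire Ultra. IC50 from 4-parameter sigmoidal fit of signal vs log concentration.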

[3] = molecular target: T2, SOS1 nucleotide exchange of KRAS (catalytic domain of SOS1, residues 564-1049; wild-type KRAS) (Homo sapiens, UniProt Q07889); assay: Mode of Action Assay: Inhibition of SOS1 Nucleotide Exchange Activity (TR-FRET); format: biochemical; settings: TR-FRET signal
T2 construct: tagless catalytic domain of SOS1 (residues 564-1049)
T2 sequence (Q07889 564-1049): T1 sequence (Q07889 564-1049 limits assumed)
Summary of the method: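 SOS1 catalytic domain (564-1049, 100 nM as diluted) preincubated 20 min with compounds (100 μM–1.7 nM, 11-point 3-fold) in HEPES pH 7.5 buffer with MgCl2. Then mixed with avi-KRAS(1-169), Streptavidin-Tb and EDA-GTP-DY-647P1 for 30 min at room temperature. TR-FRET normalized to DMSO and positive control, triplicates; IC50 by four-parameter logistic fit.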

[4] = molecular target: T3, SOS1 catalytic domain (residues 564-1049) (Homo sapiens, UniProt Q07889); assay: Binding affinity to SOS1 using Surface Plasmon Resonance (SPR); settings: avi-tagged SOS1 catalytic domain immobilized on sensor chip; read-out: SOS1 SPR Equilibrium Kd
T3 construct: SOS1 catalytic domain (residues 564-1049) immobilized on a sensor chip
T3 sequence (Q07889 564-1049): T1 sequence (Q07889 564-1049 limits assumed)
Summary of the method: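 Avi-tagged human SOS1 catalytic domain (564-1049) captured on streptavidin chip (~6000 RU); compounds flowed at 50 μL/min, 5 μM to 4.9 nM in ten 2-fold steps, in HEPES/NaCl/P20 buffer with 2% DMSO, double-referenced. Kd from end-of-association response plotted versus concentration.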

SMILES	IC50 [1] [µM]	other results
C[C@@H](Nc1ncnn2cc(C3CCNCC3)cc12)c1cc(N)cc(C(F)(F)F)c1 [Example 11, N-[(1R)-1-[3-amino-5-(trifluoromethyl)phenyl]ethyl]-6-(piperidin-4-yl)pyrrolo[2,1-f][1,2,4]triazin-4-amine]	< 1	
C[C@@H](Nc1ncnn2cc(C3=CCNCC3)cc12)c1cc(N)cc(C(F)(F)F)c1 [Example 12, N-[(1R)-1-[3-amino-5-(trifluoromethyl)phenyl]ethyl]-6-(1,2,3,6-tetrahydropyridin-4-yl)pyrrolo[2,1-f][1,2,4]triazin-4-amine]	< 1	
C[C@@H](Nc1ncnc2sc(C3=CCNCC3)cc12)c1cc(N)cc(C(F)(F)F)c1 [Example 3, N-[(1R)-1-[3-amino-5-(trifluoromethyl)phenyl]ethyl]-6-(1,2,3,6-tetrahydropyridin-4-yl)thieno[2,3-d]pyrimidin-4-amine]	1 to 5	
C[C@@H](Nc1nccn2cc(C(=O)NC[C@H]3CCOC3)nc12)c1cccc(C(F)(F)F)c1 [Example 17]	> 5	
C[C@@H](Nc1nccn2cc(C(=O)N3CCN(C)CC3)nc12)c1cccc(C(F)(F)F)c1 [Example 18]	> 5	
C[C@@H](Nc1ncnc2cc(C3=CCNCC3)sc12)c1cc(N)cc(C(F)(F)F)c1 [Example 9, N-[(1R)-1-[3-amino-5-(trifluoromethyl)phenyl]ethyl]-6-(1,2,3,6-tetrahydropyridin-4-yl)thieno[3,2-d]pyrimidin-4-amine]	< 1	
CC(=O)N1CC=C(c2cc3c(N[C@H](C)c4cccc(C(F)(F)F)c4)ncnn3c2)CC1 [Example 15]	> 5	
C[C@@H](Nc1ncnc2sc(C3(O)CCC(O)CC3)cc12)c1cc(N)cc(C(F)(F)F)c1 (stereo partly drawn) [Example 7, 1-(4-{[(1R)-1-[3-amino-5-(trifluoromethyl)phenyl]ethyl]amino}thieno[2,3-d]pyrimidin-6-yl)cyclohexane-1,4-diol]	< 1	
Cc1nc(N[C@H](C)c2cccc(C(F)(F)F)c2)c2sc([C@]3(O)CC[C@@H](O)CC3)cc2n1 [Example 5, trans-1-(2-methyl-4-{[(1R)-1-[3-(trifluoromethyl)phenyl]ethyl]amino}thieno[3,2-d]pyrimidin-6-yl) cyclohexane-1,4-diol]	> 5	
C[C@@H](Nc1nccn2cc(C(=O)N3CCN(C)CC3)nc12)c1cc(N)cc(C(F)(F)F)c1 [Example 10, N-[(1R)-1-[3-amino-5-(trifluoromethyl)phenyl]ethyl]-2-(4-methylpiperazine-1-carbonyl)imidazo[1,2-a]pyrazin-8-amine]	1 to 5	
C[C@@H](Nc1ncnn2cc(C(=O)N3CCOCC3)cc12)c1cc(N)cc(C(F)(F)F)c1 [Example 16]	> 5	
COCC(=O)N1CC=C(c2cc3c(N[C@H](C)c4cc(N)cc(C(F)(F)F)c4)ncnc3s2)CC1 [Example 4, 1-[4-(4-{[(1R)-1-[3-amino-5-(trifluoromethyl)phenyl]ethyl]amino}thieno[2,3-d]pyrimidin-6-yl)-1,2,3,6-tetrahydropyridin-1-yl]-2-methoxyethan-1-one]	1 to 5	
COCC(=O)N1CC=C(c2cnc3c(N[C@H](C)c4cccc(C(F)(F)F)c4)nccn23)CC1 [Example 22]	> 5	
C[C@@H](Nc1nc(C2CC2)nn2cc(C3=CCNCC3)cc12)c1cccc(C(F)(F)F)c1 [Example 20]	> 5	
C[C@@H](Nc1ncnn2cc(C3=CCNCC3)cc12)c1cccc(C(F)(F)F)c1 [Example 14]	1 to 5	
Cc1nc(N[C@H](C)c2cccc(C(F)(F)F)c2)c2sc(C3=CCNCC3)cc2n1 [Example 1, 2-methyl-6-(1,2,3,6-tetrahydropyridin-4-yl)-N-[(1R)-1-[3-(trifluoromethyl)phenyl]ethyl]thieno [3,2-d] pyrimidin-4-amine]	1 to 5	
CC(=O)N1CCN(c2cc3c(N[C@H](C)c4cccc(C(F)(F)F)c4)ncnn3c2)CC1 [Example 27]	< 1	
Cc1nc(N[C@H](C)c2cc(N)cc(C(F)(F)F)c2)c2cc(C3=CCNCC3)sc2n1 [Example 26]	1 to 5	
Cc1cn2nc(C(=O)N3CCOCC3)cc2c(N[C@H](C)c2cccc(C(F)(F)F)c2)n1 [Example 24]	> 5	
Cc1cn2nc(C(=O)N3CCN(C)CC3)cc2c(N[C@H](C)c2cccc(C(F)(F)F)c2)n1 [Example 25]	> 5	
COc1nc(N[C@H](C)c2cccc(C(F)(F)F)c2)c2cc(C3=CCNCC3)cn2n1 [Example 21]	1 to 5	
Cc1nc(N[C@H](C)c2cccc(C(F)(F)F)c2)c2cc(C3=CCNCC3)cn2n1 [Example 19]	> 5	
C[C@@H](Nc1ncnc2[nH]c(C(=O)N3CCOCC3)nc12)c1cc(N)cc(C(F)(F)F)c1 [Example 57, N-[(1R)-1-[3-amino-5-(trifluoromethyl)phenyl]ethyl]-8-(morpholine-4-carbonyl)-9H-purin-6-amine]		IC50 [2]: < 1 µM; IC50 [3]: < 1 µM; Kd [4]: ≤ 0.4 µM
C[C@@H](Nc1nc(Cl)nc2[nH]c(C(=O)N3CCOCC3)nc12)c1cccc(C(F)(F)CO)c1 [Example 73, (R)-(2-chloro-6-((1-(3-(1,1-difluoro-2-hydroxyethyl)phenyl)ethyl)amino)-9H-purin-8-yl)(morpholino)methanone]		IC50 [2]: > 1 µM; IC50 [3]: < 1 µM; Kd [4]: ≤ 0.4 µM
Cc1nc(N[C@H](C)c2cccc(C(F)(F)F)c2)c2sc([C@]3(O)CC[C@H](O)CC3)cc2n1 [Example 6, cis-1-(2-methyl-4-{[(1R)-1-[3-(trifluoromethyl)phenyl]ethyl]amino}thieno[3,2-d]pyrimidin-6-yl)cyclohexane-1,4-diol]	1 to 5	
C[C@@H](NC1=NC=NC2SC(C3(O)CCC(C(=O)N(C)C)CC3)=CC12)c1cc(N)cc(C(F)(F)F)c1 (stereo partly drawn) [Example 23]	< 1	
C[C@@H](Nc1ncnn2cc(N3CCOCC3)cc12)c1cc(N)cc(C(F)(F)F)c1 [Example 47, N-[(1R)-1-[3-amino-5-(trifluoromethyl)phenyl]ethyl]-6-morpholino-pyrrolo[2,1-f][1,2,4]triazin-4-amine]		IC50 [2]: > 1 µM; IC50 [3]: > 1 µM; Kd [4]: > 0.4 µM
Cc1nc(N[C@H](C)c2cc(N)cc(C(F)(F)F)c2)c2cc(C(=O)N3CCN(C)CC3)cn2n1 [Example 36, (R)-(4-((1-(3-amino-5-(trifluoromethyl)phenyl)ethyl)amino)-2-methylpyrrolo[2,1-f][1,2,4]triazin-6-yl)(4-methylpiperazin-1-yl)methanone]		IC50 [2]: < 1 µM; IC50 [3]: < 1 µM; Kd [4]: ≤ 0.4 µM
